Experiments:
Mycosphaerella fijiensis [1] = assay: Agar diffusion assay (plate diffusion method); type: cell-based; conditions: compared to other treatments and growth control
Description: In order to corroborate antifungal activity of each extract, said activity was assayed in Petri dishes using the plate diffusion method; for said purpose, 20 ml of PDA medium were dispensed for a final thickness of 4 mm. After homogenizing inocula, deep plating was performed wherein each plate was inoculated using 2×10^4 Mycosphaerella fijiensis mycelium fragments. Afterwards, using a 0.5 mm internal diameter punch, wells were made wherein 10 or 20 μL of each extract were deposited, in addition to the inhibition positive control using Mancozeb and a negative control using a 1:1 ethanol:DMSO mix. The plates were incubated in darkness conditions, 25±1° C. for seven days.

Mycosphaerella fijiensis [2] = assay: Mycelium growth inhibition in microplate format, protein extracts; type: cell-based; conditions: 0.3 ppm
Description: In order to obtain protein extracts, the optimized protein extraction protocol was followed (Item 4.1.2). Later, the protein pellet was re-suspended in 1 ml PBS pH 7.4 buffer, 200 μL DMSO and 200 μL glycerol. The protein extracts of each LED were quantified by the Bradford method (Bio-Rad Protein Assay®) (61). […] The extracts were diluted in pH 7.4 PBS phosphate buffer.
The Mycosphaerella fijiensis-inoculated microplates and also treated with the different extracts were incubated. Readings were performed according to the Standard Norm. Each concentration was assayed in three repetitions, including three experiment replicas (63, 64). Thereafter, the determination of the growth inhibition percentage for each concentration of each protein extract used was performed (65-67).
Through the use of logic models (non linear regressions) the relationship between the concentration logarithm of each antifungal (x axis) versus inhibition percentage (y axis) was established thus obtaining the respective equations, for EC50 analysis for each treatment at 5 concentrations, in order to determine the necessary concentration of each extract to reduce the population growth by 50% at an in vitro level.
In order to determine which the best protein extract for Mycosphaerella fijiensis mycelium growth inhibition was, a statistical analysis using a category factorial design was performed. […]

Mancozeb
Mycelium growth inhibition (in words) (Mycosphaerella fijiensis [1]): entirely inhibited | Inhibition of Mycosphaerella fijiensis growth (Mycosphaerella fijiensis [2]): 72%

Source: patent US9408395B2, “Process for potentiating the production of Lingzhi mushroom (Ganoderma lucidum) substances and antifungal activity thereof” (UNIVERSIDAD DE ANTIOQUIA (UDEA), priority 2013, dated 2016)
